This note sets out measurements from ChEMBL document CHEMBL1201862, “PubChem BioAssay data set” (2004).

Counter-ions that a name gives are not always drawn.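 Each compound was tested at five concentrations against cells in 96-well plates for 48 hours. GI50 marks 50% less growth.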 Activity calls are given as the source filed them. No stated cut-off is given here; in the data, active = GI50 up to about 1.1 µM and inactive = higher.

Among the test systems are A549; UACC-257; SK-OV-3; OVCAR-5; PC-3; SNB-75; CAKI-1; SW-620; UO-31; U-251; RPMI-8226; IGROV-1; CCRF-CEM; ACHN; SN12C; SR; SNB-19; A498; NCI-H226.
Holding throughout (experiment): NCI-60 cell line screen, 48 h

`Cc1cccc(/C=N/NC(=S)Nc2ccc(Cl)cc2)n1`: the GI50 in the experiment with A549 was 1.93 µM (inactive); in the experiment with UACC-257, 3.13 µM (inactive); with SK-OV-3 it was 1.8 µM (inactive); in the experiment with OVCAR-5 it was 15.7 µM (inactive); in the experiment on PC-3 it was 1.94 µM (inactive); in the experiment on SNB-75, 0.741 µM (active). Further, the GI50 with CAKI-1 was 1.7 µM (inactive); with SW-620, 0.46 µM (active); in the experiment with UO-31, 1.87 µM (inactive); in the experiment on U-251 it was 2.19 µM (inactive); with RPMI-8226, 1.14 µM (inactive); in the experiment on IGROV-1 it was 0.811 µM (active). For the same molecule, the GI50 with CCRF-CEM was 0.695 µM (active); in the experiment with ACHN it was 1.12 µM (active); in the experiment with SN12C, 3.4 µM (inactive); in the experiment on SR, 0.778 µM (active); in the experiment on SNB-19 it was 2.31 µM (inactive).
As to `Nc1nc(N)c2ncn(-c3ccc(Cl)c(Cl)c3)c2n1`, the GI50 with A549 is 30.8 µM (inactive); in the experiment on UACC-257 it was 27.4 µM (inactive); in the experiment with SK-OV-3 it was 24.9 µM (inactive); in the experiment on OVCAR-5, 42.7 µM (inactive); in the experiment with PC-3, 24.1 µM (inactive); in the experiment on SNB-75, < 0.01 µM (active). For the same molecule, the GI50 was 16.9 µM (inactive) in the experiment on CAKI-1; 13.3 µM (inactive) in the experiment on A498; 42.4 µM (inactive) in the experiment on SW-620; 18.5 µM (inactive) with UO-31; 25.9 µM (inactive) in the experiment on U-251; 35.2 µM (inactive) in the experiment with NCI-H226. The GI50 was 22.4 µM (inactive) in the experiment on RPMI-8226; 16.2 µM (inactive) with IGROV-1; 3.71 µM (inactive) with CCRF-CEM; 42.2 µM (inactive) in the experiment on ACHN; 15.8 µM (inactive) in the experiment on SN12C; 57 µM (inactive) in the experiment on SNB-19.
With `CN(C)CCOC(c1ccccc1)c1ccccc1` [DIPHENHYDRAMINE HYDROCHLORIDE], the GI50 in the experiment on A549, in the experiment on UACC-257, in the experiment with OVCAR-5, in the experiment on PC-3, in the experiment with CAKI-1 and with SW-620 was > 100 µM (inactive) throughout. Also, the GI50 with UO-31 is > 100 µM (inactive); in the experiment with NCI-H226, > 100 µM (inactive); with RPMI-8226 it was 84.3 µM (inactive); with IGROV-1, > 100 µM (inactive); in the experiment with CCRF-CEM it was > 100 µM (inactive); in the experiment with ACHN, > 100 µM (inactive). Moreover, the results for the GI50 in the experiment with SN12C and in the experiment on SR were > 100 µM (inactive) and 38.5 µM (inactive), respectively.
Take `O=Cc1cc(C(=O)OCc2ccccc2)n(S(=O)(=O)c2ccccc2)c1`: the GI50 was 25.8 µM (inactive) with A549; 24.7 µM (inactive) with UACC-257; 21.6 µM (inactive) with SK-OV-3; 18.6 µM (inactive) in the experiment on OVCAR-5; 16.6 µM (inactive) in the experiment on PC-3; 23.1 µM (inactive) in the experiment on SNB-75. Moreover, the GI50 in the experiment with CAKI-1 is 29.4 µM (inactive); in the experiment on UO-31, 12.6 µM (inactive); with IGROV-1, 25.9 µM (inactive); with CCRF-CEM, 8.07 µM (inactive); with ACHN, 15.6 µM (inactive); with SN12C, 26.3 µM (inactive). The GI50 with SR was 3.47 µM (inactive); in the experiment on SNB-19 it was 29.2 µM (inactive).
As for `CC(C)(C)c1cc(C2COC(c3cc(C(C)(C)C)c(O)c(C(C)(C)C)c3)CO2)cc(C(C)(C)C)c1O` (stereo not drawn), the GI50 in the experiment on A549, in the experiment on UACC-257, with SK-OV-3, in the experiment on OVCAR-5, in the experiment on PC-3 and in the experiment on SNB-75 was > 100 µM (inactive) in each case. The GI50 with CAKI-1 is > 100 µM (inactive); with A498 it was > 100 µM (inactive); in the experiment on SW-620, > 100 µM (inactive); with UO-31, > 100 µM (inactive); with U-251, 90.4 µM (inactive); in the experiment on NCI-H226 it was > 100 µM (inactive). The GI50 in the experiment on RPMI-8226, in the experiment with IGROV-1, in the experiment on CCRF-CEM, with ACHN, with SN12C and with SNB-19 was > 100 µM (inactive) throughout.
With `Cn1c(SCc2ccc([N+](=O)[O-])cc2)nnc1C12CC3CC(CC(C3)C1)C2`, the GI50 in the experiment with A549 is > 10 µM (inactive); in the experiment on SK-OV-3 it was > 10 µM (inactive); with OVCAR-5, > 10 µM (inactive); in the experiment with PC-3, > 10 µM (inactive); with SNB-75 it was 4.66 µM (inactive); with CAKI-1, > 10 µM (inactive). The GI50 with A498, in the experiment with SW-620, in the experiment with UO-31, in the experiment on U-251, in the experiment with NCI-H226 and with RPMI-8226 was > 10 µM (inactive) each time. Further, the GI50 with IGROV-1, in the experiment with CCRF-CEM, in the experiment with ACHN, in the experiment on SN12C and with SNB-19 was > 10 µM (inactive) each time.
As to `COc1ccc2c(c1)CN1C(=N2)CSC1c1c(Cl)cccc1[N+](=O)[O-]` (stereo not drawn), the GI50 in the experiment with A549 is 31.9 µM (inactive); with UACC-257, 17.2 µM (inactive); with SK-OV-3, 39.7 µM (inactive); in the experiment on OVCAR-5, 26.4 µM (inactive); in the experiment with PC-3, 23.8 µM (inactive); in the experiment on SNB-75, 27.8 µM (inactive). For the same molecule, the GI50 was 23.1 µM (inactive) in the experiment with CAKI-1; 15.6 µM (inactive) with SW-620; 21.3 µM (inactive) in the experiment on UO-31; 18.7 µM (inactive) in the experiment on U-251; 11.9 µM (inactive) in the experiment with NCI-H226; 15.4 µM (inactive) with RPMI-8226. Moreover, the GI50 with IGROV-1 is 31 µM (inactive); with ACHN it was 30.5 µM (inactive); with SN12C, 17.5 µM (inactive); in the experiment on SR it was 15.6 µM (inactive); with SNB-19, 29.9 µM (inactive).
On to `C=C[C@@]1(C)CC[C@@H]2[C@@]3(C1)O[C@H]3CC1[C@](C)(C(=O)OC)CCC[C@@]12C` (stereo partly drawn), for which the GI50 with A549 is 23.1 µM (inactive); in the experiment with UACC-257, 19.3 µM (inactive); with SK-OV-3, 27.4 µM (inactive); in the experiment with OVCAR-5 it was 16.9 µM (inactive); with PC-3 it was 30.4 µM (inactive); with SNB-75, 37.8 µM (inactive). Moreover, the GI50 in the experiment with CAKI-1 is 33.5 µM (inactive); with A498, 32.5 µM (inactive); in the experiment with SW-620, 23.7 µM (inactive); in the experiment with UO-31 it was 17.9 µM (inactive); in the experiment with U-251, 21.1 µM (inactive); in the experiment on RPMI-8226 it was 27 µM (inactive). In addition, the GI50 was 25.6 µM (inactive) with IGROV-1, 16.1 µM (inactive) in the experiment on ACHN and 16.3 µM (inactive) in the experiment with SNB-19.
As for `CCOC(=O)N/N=C(\Cc1ccc([N+](=O)[O-])cc1)OCC`, the GI50 with A549, in the experiment on UACC-257, with SK-OV-3, with OVCAR-5, in the experiment on PC-3 and with SNB-75 was > 100 µM (inactive) throughout. Moreover, the GI50 in the experiment on SW-620, in the experiment on UO-31, in the experiment with U-251, with RPMI-8226, with IGROV-1 and with CCRF-CEM was > 100 µM (inactive) each time. Also, the GI50 in the experiment with ACHN, with SN12C, in the experiment with SR and in the experiment with SNB-19 was > 100 µM (inactive) throughout.
Consider `CC12CCCC(O)C1CCC1=CC3(CCC12)SCCS3` (stereo not drawn), for which the GI50 in the experiment on A549, in the experiment on UACC-257, in the experiment on SK-OV-3, in the experiment on PC-3, in the experiment on SNB-75 and with CAKI-1 was > 10 µM (inactive) in each case. For the same molecule, the GI50 was > 10 µM (inactive) in the experiment with SW-620; > 10 µM (inactive) in the experiment with U-251; > 10 µM (inactive) with RPMI-8226; > 10 µM (inactive) with IGROV-1; 5.83 µM (inactive) with CCRF-CEM; > 10 µM (inactive) in the experiment with ACHN. Further, the GI50 in the experiment on SN12C, in the experiment on SR and in the experiment on SNB-19 was > 10 µM (inactive) each time.
On to `C[Si](C)(C)c1ccc(-c2c3ccc(-c4cc(Br)cc(Br)c4)nc3nc3nc(-c4cc(Br)cc(Br)c4)ccc23)cc1`, for which the GI50 with A549, in the experiment with UACC-257, with SK-OV-3, in the experiment with OVCAR-5, in the experiment with PC-3 and in the experiment with SNB-75 was > 100 µM (inactive) throughout. Moreover, the GI50 in the experiment with CAKI-1, in the experiment with A498, with UO-31, in the experiment on U-251, in the experiment on NCI-H226 and in the experiment with RPMI-8226 was > 100 µM (inactive) throughout. In addition, the GI50 in the experiment on ACHN, in the experiment on SN12C and in the experiment with SNB-19 was > 100 µM (inactive) throughout.
For the molecule `Cc1cc2nc(N3C(=O)/C(=C/c4ccc(N(C)C)cc4)N=C3c3ccccc3)sc2cc1C`, the GI50 with A549 was 33.2 µM (inactive); in the experiment on UACC-257, 27.2 µM (inactive); in the experiment with SK-OV-3 it was > 100 µM (inactive); in the experiment on OVCAR-5, 22.9 µM (inactive); in the experiment on PC-3, 15.9 µM (inactive); in the experiment on SNB-75, 22.9 µM (inactive). In addition, the GI50 with CAKI-1 is 43.9 µM (inactive); in the experiment with SW-620, 24.7 µM (inactive); in the experiment on UO-31, 24.2 µM (inactive); in the experiment on U-251 it was 32.7 µM (inactive); with RPMI-8226, 23.8 µM (inactive); in the experiment on IGROV-1, 16.3 µM (inactive). Further, the GI50 in the experiment with CCRF-CEM is 11.3 µM (inactive); in the experiment with ACHN, 19.9 µM (inactive); in the experiment with SN12C, 18.7 µM (inactive); in the experiment with SR, 6.05 µM (inactive); with SNB-19, 54.6 µM (inactive).
